{"source": "patent US5877185A", "about": "“Synergistic compositions useful as anti-tumor agents” (priority 1995, dated 1999)", "key": {"[1]": {"conditions": "weakly basic conditions; cited from earlier work"}, "[2]": {"system": "SIV 23686 (AZT-resistant)", "experiment": "AZT-resistant SIV propagation (syncytia formation), SIV 23686", "assay_type": "cell-based", "conditions": "INO2 BA 0, BSO 0.01 mM", "protocol": "(§1) CEM × 174 (3 × 10^5 /ml) were infected with equal doses o\n(§2) SIVmac239 or virus isolates from SIVmac239infected rhesus macaques (MMU\n(§3) 23686, 22803). Three days postinfection, INO2 BA concentrations\n(§4) ranging from 0 to 300 μM with or without BSO were added, and incubated\n(§5) for an additional 3 days. Cell cultures were then examined for syncytia\n(§6) formation. The number of syncytia in cell cultures was counted in\n(§7) arbitration fields under 40× magnification and scored as follows: […]"}, "cellular GSH": {"system": "cellular GSH", "experiment": "cellular GSH levels under BSO", "assay_type": "cell-based", "conditions": "at the concentrations applied", "protocol": "The role of cellular GSH was determined by the simultaneous addition of INO2 BA and BSO (an inhibitor of GSH biosynthesis, Meister, Pharmacology and Therapeutics 51:155-194 (1991), which at the concentrations applied diminished cellular GSH levels below 5-10% of controls.) The results are tabulated below in Table 3."}, "[3]": {"system": "SIVmac239 or virus isolates in CEM ×174 cells", "experiment": "SIV replication in CEM ×174 cells, SIV p27 core antigen assay", "assay_type": "cell-based", "excerpt": "Infected cell cultures described in FIG. 4 were used for determination of supernatant virus titers by SIV p27 core antigen assay as described in Example XIV. The ordinate represents p27 ELISA performed on day 10 of the assay and the abscissa represents the concentration of INO2 BA alone (rear rows in panels A, B and C) and in combination with BSO (front rows in panels A, B and C).\nCEM ×174 cells (3×10^5 /ml) were infected with 3.75 TCID50 /ml (50% tissue culture infectious dosage per ml of cell suspension) stock solution of SIVmac239 or virus isolates from SIVmac239-infected rhesus macaques on day 0. Uniform infection of cells was ensured by the infection of one cell population only per virus preparation. Three days post-infection, the cells were distributed (500 μl/well) into individual wells of a 24-well plate. Fresh medium containing INO2 BA concentrations ranging from 0 to 300 μM and/or BSO concentrations ranging from 0 to 0.25 mM were added to establish final 1-ml reaction volumes, and the cultures were further incubated for 4 days. The wells were then replenished with fresh CEM ×174 cells (3×10^5 /ml), INO2 BA and/or BSO were re-added at the same concentrations as in the original incubates, and incubation was continued for an additional 3 days. This procedure intends to mimic conditions of in vivo chemotherapy. Cell viability and virus titers in the supernatant were determined on day 10 (3 days after the addition of new cells) by the tetrazolium (MTT) method of Hansen et al., J. Immunol. Methods 119:208-210 (1982) and by the SIV p27 and reverse transcriptase (RT) assays described by Chuang et al., FEBS Lett. 326:140-144 (1993), respectively.\nSIVmac p27 core antigen levels were determined by an enzyme immunoassay provided by Coulter Corp. (Hialeah, Fla.). The assay was performed according to the manufacturer's specifications."}, "[4]": {"conditions": "literature; cited from earlier work"}, "[5]": {"system": "SIV 22803 (AZT-resistant)", "experiment": "AZT-resistant SIV propagation (syncytia formation), SIV 22803", "assay_type": "cell-based", "conditions": "INO2 BA 0, BSO 0.05 mM", "protocol": "as §1, §2, §3, §4, §5, §6, §7"}, "Molt-4 cells": {"system": "Molt-4 cells", "experiment": "time course of cell killing alone and with BSO, Molt-4", "assay_type": "cell-based", "conditions": "Molt-4, 2-3 day period; 4 μM drug, 1 mM BSO", "protocol": "(§8) Molt 4-cells were seeded at a density of 0.05×10^6 cell/ml in the recommended growth medium in the absence or the presence of drugs as indicated. Cells were incubated at 37° C. in a 5% CO2 atmosphere and proliferation was monitored in 14 hr. by cell counting in a hemacytometer. .smallcircle., untreated control; .circle-solid., treated with 4 μM 4-iodo-3-nitrobenzoic acid; .gradient., treated with 1 mM BSO; .tangle-soliddn., treated with 4 μM-iodo-3-nitrobenzoic acid and 1 mM BSO; .quadrature., treated with 4 μM 4-INO2 BA; .box-solid., treated with 1 mM BSO; .gradient., treated with 4 μM INO2 BA and 1 mM BSO. L-1210 cells were seeded at a density of 0.05×10^6 cells/ml either from untreated stock suspensions or from 24-hr. pretreated (0.2×10^6 cells/ml) suspensions. .smallcircle., untreated control; .circle-solid., treated with […] NOBA; .gradient., treated with 1 mM BSO; .tangle-soliddn., 24-hr pretreatment with 1 mM BSO then treated with 4 μM NOBA.\n(§9) A time course of the cell killings by 4-iodo-3-nitrobenzoic acid, INO2 BA and NOBA, each alone and in combination with BSO was obtained. Molt-4 cells were seeded at a density of 0.05×10^6 cells/ml in the recommended growth medium in the absence or presence of drugs as indicated in FIG. 3. Drugs were added to the wells immediately after seeding from 10-40 mM stock solution in DMSO. BSO was added from a 100 mM aqueous stock solution. Cells were incubated at 37° C. in a 5% CO2 atmosphere and proliferation was monitored in 14 hours by cell counting in a hemacytometer."}, "L-1210 cells": {"system": "L-1210 cells", "experiment": "time course of cell killing alone and with BSO, L-1210", "assay_type": "cell-based, murine", "conditions": "L-1210, 2-3 day period; 1 mM BSO", "protocol": "as §8, §9"}, "tumor cells": {"system": "tumor cells", "conditions": "Hakam et al.; cited from earlier work"}, "MDA 468": {"system": "MDA 468", "experiment": "effect of nitroso- and nitro-compounds in mammary cancer cells (monolayer), MDA 468", "assay_type": "cell-based, human", "conditions": "drug exposure 24-48 hours", "protocol": "II. I50 and LD100 Values for Nitroso- and Nitro-Compounds in (A) Mammary Cancer Cells (monolayer cultures) and in (B) L-1210 Murine Leukemia Cells (suspension culture).\nSeeding was at 2×10^4 or 0.8×10^4 cells/cm^2, drugs were added 6-18 hours after seeding, and drug exposure time was 24-48 hours."}, "pADPRT [6]": {"system": "pADPRT", "experiment": "pADPRT enzyme inactivation", "assay_type": "biochemical", "conditions": "2 hr at 25° C.", "protocol": "FIG. 1 is a graph comparing the inactivation of pADPRT by NOBA and INOBA. pADPRT inactivation was performed in 20-μl volumes of buffer containing 50 mM Hepes (pH 7.4), 100 mM KCl, 0.5 mM EDTA, pADPRT (0.4 μg/μl) and different concentrations of inactivators. Inactivators were serially diluted in the above buffer from a 20 mM stock solution in DMF. The DMF concentration (2.5%) was kept constant in the inactivation mixes. After 2 hr. at 25° C., aliquots (3 μl) were removed for assay of enzyme activity in a volume of assay mix (200 μl) in which the inactivators were dilute enough not to act as inhibitors. The assay mix consisted of 100 mM Tris (pH 7.7), 14 mM 2-mercaptoethanol, 0.1 mM [^32 P]-NAD^+, 0.2 mg/ml coDNA and 0.1 mg/ml histones. The incorporated ^32 P, proportional to enzyme activity, is plotted as percent of the untreated sample.\nNOBA and INOBA were assayed for their respective effects on pADPRT enzyme inactivation and pADPRT zinc content according to the methods described in Buki et al., FEBS Lett. 290:181-185 (1991) at pH 7.0. pADPRT inactivation was performed in 20-μl volumes of buffer containing 50 mM Hepes (pH 7.4), 100 mM KCl, 0.5 mM EDTA, pADPRT (0.4 μg/μl) and different concentrations of inactivators. Inactivators were serially diluted in the above buffer from a 20 mM stock solution in DMF. The DMF concentration (2.5%) was kept constant in the inactivation mixes. […]"}, "[7]": {"experiment": "reduction by GSH and ascorbate in in vitro chemical tests", "assay_type": "physicochemical"}, "pADPRT [8]": {"system": "pADPRT", "experiment": "pADPRT zinc content / zinc ejection", "assay_type": "biochemical", "conditions": "25° C.", "protocol": "FIG. 2A is a graph comparing the effects of NOBA and INOBA on the enzyme activity and zinc content of pADPRT. Inactivation was performed as described in Example III. In these experiments ^65 Zn^2+ -labeled pADPRT was used. The Zn^2+ content of pADPRT (upper panel) was determined as follows: two parallels of aliquots (4 μl) were pipetted into 500 μl of ice-cold washing solution (50 mM Tris, pH 7.7, 10 mM 2-mercaptoethanol and 0.5 mM EDTA) then filtered onto GF/C disks presoaked in washing solution (cold), quickly washed 4 times with 1 ml of ice-cold washing solution, dried, and the radioactivity determined. The protein-bound ^65 Zn^2+ is shown as percent of the untreated sample. Enzyme assays (lower panel) were performed as in FIG. 1.\nFor the release of Zn^2+ from transblotted pADPRT, the enzyme (3 μg per lane) was separated on SDS-PAGE, transblotted onto a nitrocellulose membrane, and renatured in the presence of ^65 ZnCl2. […] After incubation, 1 ml of the supernatant was counted for radioactivity, and the strips were washed 3 times with 2 ml of 50 mM Tris-HCl pH 7.4), 0.5 mM EDTA and 10 Mm 2-mercaptoethanol, and then dried and exposed to X-ray film. The intensity of the autoradiographic spots was quantitated by a scanner. […]"}}, "note": "“Also recorded” adds a separate entry of the source."}
{"smiles": "NC(=O)c1cccc(N(O)S(=O)(=O)CC(N)C(=O)O)c1", "note": "(centres unmarked)", "values": [{"measurement": "release of C-nitroso molecule", "setting": "[1]", "result": "releases the C-nitroso molecule at weakly basic conditions"}]}
{"smiles": "CCCCS(=N)(=O)CCC(N)C(=O)O", "note": "(racemic) [BSO, DL-buthionine sulfoximine, reference compound]", "values": [{"measurement": "Syncytia", "setting": "[2]", "result": "+++ (20-30)"}, {"measurement": "cellular GSH level", "setting": "cellular GSH", "result": "5-10 % of controls"}, {"measurement": "effect on p27 formation / SIV replication", "setting": "[3]; BSO alone, FIG. 5D", "result": "no effect"}, {"measurement": "toxicity of BSO", "setting": "[4]", "result": "very low; also recorded: non-toxicity"}, {"measurement": "Syncytia", "setting": "[5]", "result": "++++ (over 30)"}, {"measurement": "effect on cell proliferation", "setting": "Molt-4 cells", "result": "no significant effect"}, {"measurement": "effect on cell proliferation", "setting": "L-1210 cells", "result": "no significant effect"}]}
{"smiles": "Nc1ccc2oc(=O)ccc2c1", "note": "[6-amino-1,2-benzopyrone]", "values": [{"measurement": "anti-tumor effects", "setting": "tumor cells", "result": "anti-tumor effects"}]}
{"smiles": "O=c1ccc2c(I)c([N+](=O)[O-])ccc2o1", "note": "[INO2 BP, 5-iodo-6-nitro-1,2-benzopyrone]", "values": [{"measurement": "I50", "setting": "MDA 468", "result": 260, "unit": "Namomoles/cm × 10^4 cells"}]}
{"smiles": "NC(=O)c1ccc(I)c(N=O)c1", "note": "[INOBA, 4-Iodo-3-Nitrosobenzamide]", "values": [{"measurement": "inactivation of pADPRT, NOBA vs INOBA", "setting": "pADPRT [6]", "result": "more effective inactivator of pADPRT"}, {"measurement": "reduction to the corresponding hydroxyl amines", "setting": "[7]", "result": "rapidly reduced"}, {"measurement": "time in which zinc ejection was complete", "setting": "pADPRT [8]", "result": "≤ 2", "unit": "h"}, {"measurement": "effect of GSH depletion by BSO on inhibitory effect on SIV replication", "setting": "[3]; with BSO, CEM ×174 cells", "result": "synergistically enhances"}]}
